Data set [1] deals with osteosarcoma cell lines 143B, U2OS, MG63 and SJSA. The data set is described as follows: Transwell cell migration and invasion. The data set is classed as cell-based, Human. As to conditions: 1 μM, 24 hours. As for the experimental part:
1.2.6 Experimental analysis of Transwell cell migration and invasion: Cells were seeded at the upper end of the Transwell chamber (5×10^4 cells/well). 143B cells, U2OS cells, MG63 cells and SJSA cells were treated with 1 μM Anlotinib. A culture medium containing 2% serum was added to the upper end of the Transwell chamber (4 hours of pretreatment with 10% matrigel was required in the invasion experiment), and a culture medium containing 10% serum was added to the lower end. After 24 hours, the cells were fixed with 4% paraformaldehyde, stained with crystal violet, and photographed under microscope.

Data set [2] shares this test system. The data set is described as follows: Anti-proliferation effect on osteosarcoma cell lines (statement for all four lines). The data set is classed as cell-based, Human. As to conditions: 0, 1, 2 or 4 μM for 24 or 48 hours; time- and concentration-dependent. As for the experimental part: 1.2.2 Detection of cell proliferation by cck-8: 143B cells, U2OS cells, MG63 cells and SJSA cells in logarithmic growth phase were collected, rinsed with PBS, counted, and dispensed into separate tubes. The cells were seeded into a 96-well plate (3000 cells/well) and cultured for 24 h to allow for cell attachment. Anlotinib with different amount-of-substance concentrations (0 μM, 1 μM, 2 μM, 4 μM, 8 μM, 16 μM, 32 μM, and 64 μM) were then added, the mixture was incubated for 24 h, and then the detection was carried out. 100 μL of cck-8 reagent diluted 10-fold with DMEM culture medium was added into each well and the resulting mixture was incubated at 37° C. for 45 minutes. The absorbance value of the resultant in each well at 450 nm was detected by using a microplate reader.
In order to evaluate the anti-proliferation effects of Anlotinib on osteosarcoma cell lines 143B, U2OS, MG63 and SJSA, the osteosarcoma cell lines were treated with Anlotinib with a concentration of 0 μM, 1 μM, 2 μM or 4 μM for 24 hours or 48 hours.

Data set [3] shares this test system. Put plainly: Detection of cell cycle by flow cytometer. The data set is classed as cell-based, Human. As to conditions: 0-4 μM, 24 h, PI staining. Here is the method: 1.2.4 Detection of cell cycle by flow cytometer: 143B cells, U2OS cells, MG63 cells and SJSA cells were added to the liquid culture media containing different amount-of-substance concentrations of Anlotinib (0 μM, 1 μM, 2 μM, and 4 μM) for cultivation. The cells were collected after 24 h, centrifuged at 1000 r/min for 1 min, rinsed with PBS, and fixed with 70% ethanol. The PI staining solution of cell cycle analysis kit was added, the mixture was incubated in the dark at room temperature for 15 min, and the detection was carried out by using a flow cytometer. Images were analyzed by using ModFit software. The experiment was repeated 3 times.
For orientation: Flow cytometry measures light scatter and fluorescence of single cells or particles in a stream.

For a further data set, the system named is 143B cells. The data set is described as follows: Detection of cell proliferation by cck-8. Type of data set: cell-based. Conditions: Homo sapiens. As for the experimental part: (§1) 1.2.1 Cell culture: Osteosarcoma cell lines 143B, […], MG63 and SJSA were cultured in DMEM complete culture medium (containing fetal bovine serum with a volume fraction of 10%, 0.1 g/L streptomycin, and 100 U/mL penicillin), and was incubated in a thermostatic incubator containing 5% CO2 (volume fraction) at 37° C. When about 85% cell confluence was reached, the cells were detached by using a mixed cell detachment solution containing 0.02% EDTA and 0.25% trypsin, and then the cells were collected, centrifuged at 1000 r/min for 3 min, and subcultured.
(§2) 1.2.2 Detection of cell proliferation by cck-8: 143B cells, U2OS cells, MG63 cells and SJSA cells in logarithmic growth phase were collected, rinsed with PBS, counted, and dispensed into separate tubes. The cells were seeded into a 96-well plate (3000 cells/well) and cultured for 24 h to allow for cell attachment. […] 100 μL of cck-8 reagent diluted 10-fold with DMEM culture medium was added into each well and the resulting mixture was incubated at 37° C. for 45 minutes. The absorbance value of the resultant in each well at 450 nm was detected by using a microplate reader.

For another data set, the system named is MG63 cells. Put plainly: Detection of cell proliferation by cck-8. The data set is classed as cell-based. As to conditions: Homo sapiens, MG-63. Here is the method: as §1, §2
A further data set concerns U2OS cells. The data set is described as follows: Detection of cell proliferation by cck-8. The data set is classed as cell-based. Conditions: Homo sapiens. Here is the method: as §1, §2
The subject of the next data set is SJSA cells. The data set is described as follows: Detection of cell proliferation by cck-8. Type of data set: cell-based. As to conditions: Homo sapiens. As for the experimental part: as §1, §2
Data set [4] has as its system osteosarcoma cell lines 143B, U2OS, MG63 and SJSA. Put plainly: Detection of cell apoptosis by flow cytometer (Annexin-V-FITC/PI), with or without cisplatin. The data set is classed as cell-based, Human. Conditions: 2 μM Anlotinib with 10 μM cisplatin (DDP), 24 h. Here is the method: 1.2.5 Detection of cell apoptosis by flow cytometer: 143B cells, U2OS cells, MG63 cells and SJSA cells were added to the liquid culture media containing 2 μM Anlotinib (with or without 10 μM cisplatin (DDP)) for cultivation. The cells were collected after 24 h, centrifuged at 1000 r/min for 1 min, and rinsed with PBS. Afterwards, an Annexin-V-FITC/PI Cell Apoptosis Detection Kit was used to detect the apoptosis of cells. The cells were added to 100 μL of 1×Binding buffer and resuspended, 5 μL of AnnexinV-FITC and 2.5 μL of PI staining reagent were added, and the mixture was shaken and mixed evenly in the dark. The resultant was reacted at room temperature for 15 min, 300 μL of 1×Binding buffer was then added, and the resulting mixture was mixed evenly and detected by a flow cytometer. The experiment was repeated 3 times.

Data set [5] concerns osteosarcoma of the right proximal fibula. Put plainly: Clinical case Example 8: patient. The data set is classed as in vivo. Conditions: prior chemotherapy, 1 cycle. As for the experimental part:
A patient experienced a pain on the outer side of the right lower leg with no obvious predisposing cause for 6 months. The pain was persistent and unrelated to movements such as walking, and could not be alleviated after rest. The patient was neither diagnosed nor treated, and the pain was gradually aggravated and occurred at night. […] The patient went for consultation on Dec. 1, 2017, and an incision biopsy of the tumor of the limb was performed on December 5. […] On Apr.
Methotrexate chemotherapy was given for 1 day on Dec. 12, 2017, Feb. 7, 2018, May 4, 2018 and Jul. 6, 2018, respectively. IFO chemotherapy (1 cycle) was given during the following time periods: from Dec. 16, 2017 to […], from Mar. 2, 2018 to Mar. 7, 2018 (the therapeutic effect was evaluated as SD), from Apr. 18, 2018 to Apr. 22, 2018 (platelet reduction (Grade IV)), from Jun. 14, 2018 to Jun. 18, 2018 (the therapeutic effect was evaluated as SD), from Aug. 30, 2018 to Sep. 3, 2018 (the therapeutic effect was evaluated as PD). Cisplatin and amrubicin chemotherapy (1 cycle) was respectively given during the following time periods: from Jan. 17, 2018 to Jan. 20, 2018, from May 24, 2018 to May 27, 2018, and from Jul. 20, 2018 to Jul. 23, 2018 (the therapeutic effect was evaluated as SD). […]

Data set [6] has as its system osteosarcoma of the right tibia, lung and pelvic metastasis. Put plainly: Clinical case Example 7: patient. As for the experimental part: A patient underwent the resection of the lesion on Nov. 7, 2016. On Nov. […] PORT implantation was performed under general anesthesia on Nov. 29, 2016, and the postoperative systemic intravenous adjuvant chemotherapy was performed. […] 1, 2016, and methotrexate (2 cycles of chemotherapy) was administered from Dec. 16, 2016 to Jan. 5, 2017. The CT re-examination performed on Jan. […] Ifosfamide (1 cycle of chemotherapy) was administered on Jan. […] The segmental resection of the tumor of the right proximal tibia, the joint replacement and the transposition of gastrocnemius muscle flap were performed under general anesthesia on Feb. 7, 2017. […] Ifosfamide (1 course of chemotherapy) was administered on Mar. […] Methotrexate was administered on Mar. […] 15, 2017. […] 4, 2017, ifosfamide chemotherapy was given on Jun. […] Methotrexate chemotherapy was given on Jul. […] Ifosfamide chemotherapy was given on Aug. […] The CT re-examination performed on Jan. […] A puncture biopsy of the mass of right femur was performed on Oct.
The patient was treated with anlotinib dihydrochloride capsule (12 mg) once a day via oral administration (2 weeks of continuous administration and 1 week of withdrawal being considered as one treatment cycle) from Nov. 16, 2018. […] 26, 2018.

The test system of data set [7] is osteosarcoma (chondroblastic type) of the right proximal humerus, bilateral lung metastasis. Put plainly: Clinical case Example 6: patient. The data set is classed as in vivo, human. As to conditions: prior high-dose chemotherapy, 6 courses, Aug-Dec 2016. As for the experimental part:
A patient underwent the surgical removal of the osteosarcoma lesion in the right proximal humerus and the humeral head prosthesis replacement on Apr. 27, 2013. […] Doxorubicin and ifosfamide were administered after the surgery. […] Bone marrow support therapy was given during the intermission of chemotherapy until the end of chemotherapy in August 2013. […] 1. […] 2. There were enlarged lymph nodes in the right axilla with slight increase in metabolism. The patient was treated by being administered with CIK cells via infusion after the completion of the chemotherapy. At the end of 2015, the patient experienced pain in the upper part of the left humerus, no obvious mass was seen, and the patient suffered from the recurrent pain. […] 1. There was no sign of tumor recurrence in the right humerus after the surgery of the osteosarcoma of the right humerus and the comprehensive treatment, and there was a stripe-shaped hypermetabolic lesion in the upper part of the left humerus. 2. There was no sign of lymph node metastasis in the bilateral armpits. 3. […] On Jun. 7, 2016 and Jul. 1, 2016, the patient underwent 2 courses of doxorubicin and ifosfamide chemotherapy and the process went well. […] Microwave inactivation of the tumor of the left proximal humerus and the bone graft internal fixation was performed on Jul. 22, 2016. […]

Where two headings read alike, the source gives them in different places.

What is called IC50 is the concentration at which inhibition is half-maximal. With `COc1cc2c(Oc3ccc4[nH]c(C)cc4c3F)ccnc2cc1OCC1(N)CC1` [Anlotinib, 1-[[[4-(4-fluoro-2-methyl-1H-indol-5-yl)oxy-6-methoxyquinolin-7-yl]oxy]methyl]cyclopropylamine], the “migration of osteosarcoma cell lines” value in data set [1] is reported as “greatly inhibited”. Also, the “invasion of osteosarcoma cell lines” value in data set [1] (matrigel) was “greatly inhibited”. In data set [2], the “effect on the proliferation of the osteosarcoma cell lines” value is listed as “significant inhibitory effect”. Moreover, the cell cycle arrest result in [3] was “G2/M cycle arrest occurred in cells”. For the same compound, in data set [3], the “cells in G1 phase” value is listed as “decrease of cells in G1 phase”. The IC50 in the data set with 143B cells (24 h, read-out: IC50 (24 h)) was determined as 20.8 µM; in the data set on 143B cells (48 h, read-out: IC50 (48 h)), 7.95 µM; in the data set on MG63 cells (MG63, 24 h, read-out: IC50 (24 h)) it was 30.1 µM; in the data set on MG63 cells (MG63, 48 h, read-out: IC50 (48 h)), 14.8 µM; in the data set with U2OS cells (24 h, read-out: IC50 (24 h)), 41.3 µM; in the data set with U2OS cells (48 h, read-out: IC50 (48 h)), 25.9 µM. Also, the IC50 with SJSA cells (24 h, read-out: IC50 (24 h)) was 25.7 µM; in the data set on SJSA cells (48 h, read-out: IC50 (48 h)) it was 10.2 µM. Further, the “apoptosis of osteosarcoma cell lines caused by cisplatin” value in data set [4] is given as “significantly enhancing”.

On to `O=P1(NCCCl)OCCCN1CCCl` (centres unmarked) [Ifosfamide, ifosfamide], for which, in [5] (Apr. 18, 2018 to Apr. 22, 2018), the platelet reduction grade result is given as “Grade IV”. The therapeutic effect result in data set [5] (Aug. 30, 2018 to Sep. 3, 2018) is “PD (progressive disease, specifically means that the sum of the diameters of the tumor target lesions increases by 20% or more from the baseline level)”. For the same compound, in data set [6] (prior chemotherapy, 1 cycle, Jan. 19, 2017), the tolerability of chemotherapy entry was “no obvious gastrointestinal reaction and bone marrow suppression”. The leucocytopenia grade entry in data set [6] (prior chemotherapy, Aug. 16, 2017) is reported as “Grade IV”; in data set [6] (prior chemotherapy, Jun. 19, 2017 (after doxorubicin and cisplatin Jun. 4, 2017)) it was “Grade IV”; in [6] (prior chemotherapy, Mar. 10, 2017), “Grade II”; in data set [6] (prior chemotherapy, May 3, 2017), “Grade IV”.

For `CN(Cc1cnc2nc(N)nc(N)c2n1)c1ccc(C(=O)N[C@@H](CCC(=O)O)C(=O)O)cc1` [Methotrexate, methotrexate], the “bone marrow suppression grade” value is recorded as “Grade II” in [6] (human, in vivo) and “Grade I to II” in [7].

These data come from US20200316053A1, “APPLICATION OF NOVEL TYROSINE KINASE INHIBITOR, ANLOTINIB, IN OSTEOSARCOMA AND CHONDROSARCOMA” (CHIA TAI TIANQING PHARMACEUTICAL GROUP CO., LTD., priority 2018, published 2020).
